Each structure is given as a SMILES string.

Data set [1] concerns the target T1, ATP-dependent translocase ABCB1 (Homo sapiens, UniProt P08183). The experiment in a line: Inhibition of full length human ABCB1 expressed in Flp-In-293 cells at 5 uM incubated for 30 mins by calcein-AM uptake assay relative to control. The format is cell-based. Particulars: 0.5 h.
Data set [2] has as its target T1, ATP-dependent translocase ABCB1. The experiment in a line: Inhibition of full length human ABCB1 expressed in Flp-In-293 cells at 2.5 uM incubated for 30 mins by calcein-AM uptake assay relative to control. As to conditions: 0.5 h. Type of data set: cell-based.

T1 sequence (P08183 whole entry): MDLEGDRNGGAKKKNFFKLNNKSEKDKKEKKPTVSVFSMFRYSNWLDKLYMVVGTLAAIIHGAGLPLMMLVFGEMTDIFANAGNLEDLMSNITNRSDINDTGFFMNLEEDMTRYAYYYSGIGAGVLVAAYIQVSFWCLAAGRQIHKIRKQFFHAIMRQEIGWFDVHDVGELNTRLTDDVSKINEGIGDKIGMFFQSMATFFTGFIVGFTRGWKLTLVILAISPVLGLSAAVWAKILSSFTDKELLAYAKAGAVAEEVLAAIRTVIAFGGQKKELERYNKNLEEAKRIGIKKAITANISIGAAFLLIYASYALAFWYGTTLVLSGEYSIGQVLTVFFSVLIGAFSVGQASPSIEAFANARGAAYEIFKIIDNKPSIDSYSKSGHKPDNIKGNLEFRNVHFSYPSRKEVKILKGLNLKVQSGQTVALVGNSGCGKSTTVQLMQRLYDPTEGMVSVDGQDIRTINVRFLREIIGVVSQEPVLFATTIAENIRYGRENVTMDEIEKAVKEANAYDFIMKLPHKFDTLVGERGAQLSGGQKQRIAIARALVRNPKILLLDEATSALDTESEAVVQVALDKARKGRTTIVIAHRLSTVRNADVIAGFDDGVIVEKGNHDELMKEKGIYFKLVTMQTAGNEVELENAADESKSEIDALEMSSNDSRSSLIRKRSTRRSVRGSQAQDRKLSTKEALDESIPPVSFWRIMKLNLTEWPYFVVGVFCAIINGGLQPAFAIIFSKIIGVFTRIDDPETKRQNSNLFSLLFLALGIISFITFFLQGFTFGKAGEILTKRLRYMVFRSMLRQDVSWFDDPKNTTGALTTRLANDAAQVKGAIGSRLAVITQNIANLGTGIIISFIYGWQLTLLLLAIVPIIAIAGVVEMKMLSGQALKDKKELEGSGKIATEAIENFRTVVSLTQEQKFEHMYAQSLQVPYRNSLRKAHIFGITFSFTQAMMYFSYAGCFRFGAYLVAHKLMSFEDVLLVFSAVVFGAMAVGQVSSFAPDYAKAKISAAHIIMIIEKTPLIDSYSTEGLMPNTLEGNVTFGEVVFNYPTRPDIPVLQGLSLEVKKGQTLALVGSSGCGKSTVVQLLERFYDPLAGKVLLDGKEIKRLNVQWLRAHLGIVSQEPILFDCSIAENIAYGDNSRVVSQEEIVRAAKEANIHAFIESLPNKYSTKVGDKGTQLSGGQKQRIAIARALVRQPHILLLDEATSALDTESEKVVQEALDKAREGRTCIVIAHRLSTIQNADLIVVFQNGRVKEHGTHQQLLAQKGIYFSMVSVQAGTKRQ

On to `COc1ccc(-c2coc3cc4occ(-c5ccc(OC)c(OC)c5)c(=O)c4c(O)c3c2=O)cc1OC`, for which the “fold change (FC)” value was 0.86 in data set [1] and 0.81 in data set [2].
In the case of `O=c1c(-c2cccc(F)c2)coc2c1c(O)cc1occ(-c3cccc(F)c3)c(=O)c12`, the entries for the “fold change (FC)” value in data set [1] and in data set [2] were 0.82 and 0.96, respectively.
For `Cc1ccccc1-c1coc2cc3occ(-c4ccccc4C)c(=O)c3c(O)c2c1=O` the same measures were 0.81 and 0.87.
As for `O=c1c(-c2ccc(Cl)c(Cl)c2)coc2c1c(O)cc1occ(-c3ccc(Cl)c(Cl)c3)c(=O)c12`, the “fold change (FC)” value in data set [1] is 0.81; in data set [2], 0.8.
As to `O=c1c(C2CC2)coc2c1c(O)cc1occ(C3CC3)c(=O)c12`, the entries for the “fold change (FC)” value in data set [1] and in data set [2] were 0.63 and 0.8, respectively.
Regarding `Cc1ccccc1-c1coc2c(c(O)cc3occ(-c4ccccc4C)c(=O)c32)c1=O`, the “fold change (FC)” value in data set [1] is listed as 1.53; in data set [2], 1.15.
For `O=c1c(-c2ccc(F)cc2)coc2c1c(O)cc1occ(-c3ccc(F)cc3)c(=O)c12`, the “fold change (FC)” value is recorded as 0.84 in data set [1] and 0.92 in data set [2].
For `O=c1c(-c2ccccc2[N+](=O)[O-])coc2cc3occ(-c4ccccc4[N+](=O)[O-])c(=O)c3c(O)c12` the same measures were 0.83 and 0.85.
Take `O=c1c(-c2cccc(Cl)c2)coc2c1c(O)cc1occ(-c3cccc(Cl)c3)c(=O)c12`: the “fold change (FC)” value in data set [1] is recorded as 0.82; in data set [2], 0.83.
For `O=c1c(-c2cccc(F)c2)coc2cc3occ(-c4cccc(F)c4)c(=O)c3c(O)c12` the same measures were 0.75 and 0.6.
For `O=c1c(-c2cccc(O)c2)coc2c1c(O)cc1occ(-c3cccc(O)c3)c(=O)c12` the same measures were 0.99 and 1.01.
For `O=c1c(-c2ccccc2)coc2c1c(O)cc1occ(-c3ccccc3)c(=O)c12` the same measures were 1.29 and 1.04.
Consider `COc1cc(-c2coc3cc4occ(-c5cc(OC)c(OC)c(OC)c5)c(=O)c4c(O)c3c2=O)cc(OC)c1OC`, for which the “fold change (FC)” value in data set [1] is 0.72; in data set [2], 0.8.
For `O=c1c(-c2ccccc2)coc2cc3occ(-c4ccccc4)c(=O)c3c(O)c12` the same measures were 0.9 and 1.04.
For `O=c1c(-c2ccc(OC(F)(F)F)cc2)coc2c1c(O)cc1occ(-c3ccc(OC(F)(F)F)cc3)c(=O)c12` the same measures were 1.04 and 0.97.
For `O=c1c(-c2cccc3ccccc23)coc2cc3occ(-c4cccc5ccccc45)c(=O)c3c(O)c12` the same measures were 0.64 and 0.72.
For the compound `O=c1c(-c2cccc(C(F)(F)F)c2)coc2c1c(O)cc1occ(-c3cccc(C(F)(F)F)c3)c(=O)c12`, the “fold change (FC)” value in data set [1] is reported as 1.15; in data set [2], 1.1.
For `O=c1c(-c2ccc(Cl)cc2)coc2cc3occ(-c4ccc(Cl)cc4)c(=O)c3c(O)c12` the same measures were 1.08 and 1.06.
For `O=c1c(-c2ccc(OC(F)(F)F)cc2)coc2cc3occ(-c4ccc(OC(F)(F)F)cc4)c(=O)c3c(O)c12` the same measures were 0.63 and 0.62.
For `COc1cccc(-c2coc3cc4occ(-c5cccc(OC)c5)c(=O)c4c(O)c3c2=O)c1` the same measures were 0.85 and 1.
In the case of `O=c1c(-c2ccccc2F)coc2cc3occ(-c4ccccc4F)c(=O)c3c(O)c12`, the “fold change (FC)” value is given as 0.89 in data set [1] and 0.92 in data set [2].
For `O=c1c(-c2ccc(Cl)cc2)coc2c1c(O)cc1occ(-c3ccc(Cl)cc3)c(=O)c12`, the “fold change (FC)” value in data set [1] was 0.82; in data set [2], 0.76.
For `O=c1c(-c2cccc3ccccc23)coc2c1c(O)cc1occ(-c3cccc4ccccc34)c(=O)c12` the same measures were 0.85 and 0.87.
For `Cc1ccc(-c2coc3cc4occ(-c5ccc(C)cc5)c(=O)c4c(O)c3c2=O)cc1` the same measures were 1.81 and 1.62.
For `COc1cccc(-c2coc3c(c(O)cc4occ(-c5cccc(OC)c5)c(=O)c43)c2=O)c1` the same measures were 1.28 and 1.19.
On to `O=c1c(-c2c(F)cccc2Cl)coc2cc3occ(-c4c(F)cccc4Cl)c(=O)c3c(O)c12`, for which the “fold change (FC)” value in data set [1] is 1.06; in data set [2], 0.95.
For `O=c1c(-c2ccc([N+](=O)[O-])cc2)coc2c1c(O)cc1occ(-c3ccc([N+](=O)[O-])cc3)c(=O)c12` the same measures were 0.75 and 0.88.
For `O=c1c(-c2cccc(O)c2)coc2cc3occ(-c4cccc(O)c4)c(=O)c3c(O)c12` the same measures were 1.19 and 1.33.
Turning to `O=c1c(-c2cccs2)coc2cc3occ(-c4cccs4)c(=O)c3c(O)c12`, the “fold change (FC)” value is 0.67 in data set [1] and 0.61 in data set [2].
For `O=c1c(-c2ccccc2C(F)(F)F)coc2cc3occ(-c4ccccc4C(F)(F)F)c(=O)c3c(O)c12` the same measures were 1.36 and 1.32.
For `COc1ccccc1-c1coc2cc3occ(-c4ccccc4OC)c(=O)c3c(O)c2c1=O` the same measures were 0.82 and 0.76.
As for `COc1ccccc1-c1coc2c(c(O)cc3occ(-c4ccccc4OC)c(=O)c32)c1=O`, the “fold change (FC)” value in data set [1] was 1.56; in data set [2] it was 1.4.
For `O=c1c(-c2cccc(Cl)c2)coc2cc3occ(-c4cccc(Cl)c4)c(=O)c3c(O)c12` the same measures were 0.87 and 0.5.
For `O=c1c(-c2ccccc2F)coc2c1c(O)cc1occ(-c3ccccc3F)c(=O)c12` the same measures were 0.67 and 0.76.
In the case of `COc1ccc(-c2coc3cc4occ(-c5ccc(OC)cc5)c(=O)c4c(O)c3c2=O)cc1`, the “fold change (FC)” value is 1.3 in data set [1] and 0.87 in data set [2].
With `O=c1c(-c2ccccc2Cl)coc2c1c(O)cc1occ(-c3ccccc3Cl)c(=O)c12`, the “fold change (FC)” value is 1.09 in data set [1] and 0.98 in data set [2].
For `O=c1c(-c2ccc3c(c2)OCO3)coc2c1c(O)cc1occ(-c3ccc4c(c3)OCO4)c(=O)c12` the same measures were 0.7 and 0.72.
For `O=c1c(-c2ccccc2C(F)(F)F)coc2c1c(O)cc1occ(-c3ccccc3C(F)(F)F)c(=O)c12` the same measures were 0.81 and 0.76.
On to `COc1ccc(CCN(C)CCCC(C#N)(c2ccc(OC)c(OC)c2)C(C)C)cc1OC` (centres undefined) [VERAPAMIL], for which the “fold change (FC)” value in data set [1] is on record as 2.39.
`O=c1c(-c2cccc(C(F)(F)F)c2)coc2cc3occ(-c4cccc(C(F)(F)F)c4)c(=O)c3c(O)c12`: the “fold change (FC)” value in data set [1] was 1.18; in data set [2] it was 1.27.
For `O=c1c(-c2ccccc2Cl)coc2cc3occ(-c4ccccc4Cl)c(=O)c3c(O)c12` the same measures were 0.85 and 0.71.
Consider `COc1cc(-c2coc3c(c(O)cc4occ(-c5cc(OC)c(OC)c(OC)c5)c(=O)c43)c2=O)cc(OC)c1OC`, for which the “fold change (FC)” value is given as 0.75 in data set [1] and 0.76 in data set [2].
For `O=c1c(-c2cccs2)coc2c1c(O)cc1occ(-c3cccs3)c(=O)c12` the same measures were 0.83 and 0.88.
For `Cc1cccc(-c2coc3cc4occ(-c5cccc(C)c5)c(=O)c4c(O)c3c2=O)c1` the same measures were 0.93 and 0.86.
For `O=c1c(C2CC2)coc2cc3occ(C4CC4)c(=O)c3c(O)c12` the same measures were 0.86 and 0.86.
As for `O=c1c(-c2c(F)cccc2Cl)coc2c1c(O)cc1occ(-c3c(F)cccc3Cl)c(=O)c12`, the “fold change (FC)” value is 0.64 in data set [1] and 0.66 in data set [2].
For `Cc1ccc(-c2coc3c(c(O)cc4occ(-c5ccc(C)cc5)c(=O)c43)c2=O)cc1` the same measures were 2.04 and 1.58.
For `O=c1c(-c2ccc(C(F)(F)F)cc2)coc2c1c(O)cc1occ(-c3ccc(C(F)(F)F)cc3)c(=O)c12` the same measures were 0.9 and 0.87.
`O=c1c(-c2ccccc2[N+](=O)[O-])coc2c1c(O)cc1occ(-c3ccccc3[N+](=O)[O-])c(=O)c12`: the “fold change (FC)” value was 1.03 in data set [1] and 0.98 in data set [2].
For `O=c1c(-c2ccc(F)cc2)coc2cc3occ(-c4ccc(F)cc4)c(=O)c3c(O)c12` the same measures were 1.3 and 0.85.

Source of the values: ChEMBL document CHEMBL3822397, “Synthesis and bioevaluation of novel benzodipyranone derivatives as P-glycoprotein inhibitors for multidrug resistance reversal agents” (Eur J Med Chem, 2016).
